This passage reports Ki results from patent US20060058350A1, “Alkynyl-substituted azasugar derivative and drug containing the same as the active ingredient” (Carna Biosciences, Inc., priority 2002, published 2006).

Common to all, as to format: biochemical
The target in assay [1] is T1, MMP-1 (Homo sapiens, UniProt P03956).
T1 construct: A DNA fragment coding for catalytic regions in MMP-1 and MMP-9; histidine tag (N); made in house; host or cells: E. coli
T1 sequence (P03956 98-276 limits assumed): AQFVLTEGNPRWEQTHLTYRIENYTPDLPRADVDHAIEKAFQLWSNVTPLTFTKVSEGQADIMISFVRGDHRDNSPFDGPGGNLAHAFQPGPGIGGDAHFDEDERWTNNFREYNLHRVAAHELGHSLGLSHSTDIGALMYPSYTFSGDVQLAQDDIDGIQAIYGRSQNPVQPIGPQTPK
As to the kind of experiment: Measurement of matrix metalloprotease (MMP) inhibitory activity, MMP-1, fluorescence quenching peptide substrate. The conditions noted are these: recombinant catalytic region of MMP-1; 37° C., 2 hours; Ki calculated from IC50 and Km; read-out: Ki MMP1. As to the method:
(§1) A DNA fragment coding for catalytic regions in MMP-1 and MMP-9 was amplified by a PCR method with cDNA prepared from HT-1080 cells derived from human fibrosarcoma. In the same manner, a DNA fragment containing a pro-region and a catalyst region in MMP-3 was also prepared. The amplified DNA fragment was cloned into a commercially available expression vector which was designed to allow a histidine tag to add to the N-terminal, and then transformed into E. coli. The resulting transformants were cultured and a recombinant MMP was purified from a cell lysate using Ni-NTA regin (QIAGEN INC.). Recombinant MMP-3 was further activated by reacting with 1 mM para-aminophenyl mercury acetate at 37° C. for one hour.
(§2) The inhibitory activity was measured according to the method by Night et al. [FEBS Lett. 296, p 263 (1992)] or the method by Nagase et al. [J. Biol. Chem. 269, p 20952 (1994)] using a 96-half well black microplate. A solution prepared by dissolving each of test compounds (a) to (f) in dimethyl sulfoxide was diluted with a reaction buffer [50 mM Tris-HCl (pH 7.5) buffer containing 150 mM NaCl, 10 mM CaCl2, 0.05% Brij-35®] and then 25 μL of the dilute solution was added in a well.
(§3) After 25 μL of a MMP solution diluted with the reaction buffer was added thereto, the mixture was incubated at 37° C. for 10 minutes. Then, the reaction was initiated by adding 50 μL of a 10 μM fluorescence quenching peptide substrate prepared from the reaction buffer. As the fluorescence quenching peptide substrate, MCA-Pro-Leu-Gly-Leu-DPA-Ala-Arg-NH2 (MCA=7-methoxycoumarin-4-acetyl and DPA=N-3-(2,4-dinitrophenyl)-L-2,3-diaminopropionyl) were used for MMP-1 and MMP-9, and MCA-Arg-Pro-Lys-Pro-Val-Nva-Trp-Arg-Lys (DNP)-NH2 (DNP=2,4-dinitrophenyl) was used for MMP-3. A fluorescence intensity (excitation 320/fluoresecence 405 nm) immediately after the initiation of the reaction and a fluorescence intensity after the reaction at 37° C. (for 2 hours for MMP-1 and MMP-3, for 3 hours for MMP-9) were measured and a difference in fluorescence intensity was taken as an indicator of enzymatic activity. The inhibition rate (%) at each concentration of an inhibitor was calculated and an IC50 value was determined from the dose-response curve. From this IC50 value and previously determined Km value for a […] substrate, a Ki value was calculated using GraphPad Prism software (GraphPad Software, Inc.).

Assay [2] has as its target T2, MMP-3 (Homo sapiens, UniProt P08254).
T2 construct: a DNA fragment containing a pro-region and a catalyst region in MMP-3 was also prepared; histidine tag (N); made in house; host or cells: E. coli
The assay can be described thus: Measurement of matrix metalloprotease (MMP) inhibitory activity, MMP-3, fluorescence quenching peptide substrate. The following applies: recombinant MMP-3 activated with para-aminophenyl mercury acetate; 37° C., 2 hours; Ki calculated from IC50 and Km; read-out: Ki MMP3. As to the method: as §1, §2, §3

Assay [3] deals with T3, MMP-9 (Homo sapiens, UniProt P14780).
T3 construct: A DNA fragment coding for catalytic regions in MMP-1 and MMP-9; histidine tag (N); made in house; host or cells: E. coli
T3 sequence (P14780 107-444 limits assumed): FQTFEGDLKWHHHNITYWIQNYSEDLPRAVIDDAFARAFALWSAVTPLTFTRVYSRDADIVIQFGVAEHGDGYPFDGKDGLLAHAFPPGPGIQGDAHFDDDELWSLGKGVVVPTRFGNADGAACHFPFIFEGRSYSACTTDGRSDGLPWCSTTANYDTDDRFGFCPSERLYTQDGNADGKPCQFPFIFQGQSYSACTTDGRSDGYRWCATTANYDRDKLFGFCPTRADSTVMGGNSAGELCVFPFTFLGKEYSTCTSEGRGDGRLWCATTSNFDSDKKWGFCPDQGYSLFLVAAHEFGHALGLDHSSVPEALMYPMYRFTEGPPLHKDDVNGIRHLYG
The assay can be described thus: Measurement of matrix metalloprotease (MMP) inhibitory activity, MMP-9, fluorescence quenching peptide substrate. The following applies: read-out: Ki MMP9. The protocol: as §1, §2, §3

Assay [4] addresses T4, TNF-α converting enzyme (TACE) (Homo sapiens, UniProt P78536).
T4 construct: a DNA fragment cording a signal region, a pro-region and a catalytic region was amplified by a PCR method; FLAG octapeptide (C); made in house; host or cells: insect cells (baculovirus, pFastBac)
As to the kind of experiment: Measurement of inhibitory activity against TNF-α converting enzyme (TACE), fluorescence quenching peptide substrate. The protocol:
A full length cDNA for TACE was cloned from THP-1 cells derived from human acute monocytic leukemia and a DNA fragment cording a signal region, a pro-region and a catalytic region was amplified by a PCR method. An appropriate restriction enzyme recognizing sequence was added to both terminals of the amplified fragment and also a sequence of an antigenic octapeptide (FLAG™) tag was inserted in the 3′ terminal. A recombinant bacmid was prepared from the resulting amplified fragment using a pFastBac system (Life Technologies) and then transfected into insect cells to generate a recombinant baculovirus. Insect cells were infected with the recombinant baculovirus and the recombinant TACE released into culture supernatant was purified by an affinity gel column.
The inhibitory activity was measured according to the method by Van Dyke et al. [Bioorg. […] A solution prepared by dissolving each of test compounds (a) to (f) in dimethylsulfoxide was diluted with a reaction buffer [20 mM tris-HCl buffer (pH 7.5) containing 0.05% Brij-35®] and then 40 μL of the dilute solution was added in a well. […] The inhibition rate (%) at each concentration of an inhibitor was calculated and an IC50 value was determined from the dose-response curve. From this IC50 value and previously determined Km value for a TACE substrate, a Ki value was calculated using data processing software (GraphPad Prism™, GraphPad Software, Inc.).

T4 sequence (P78536 223-474 limits assumed): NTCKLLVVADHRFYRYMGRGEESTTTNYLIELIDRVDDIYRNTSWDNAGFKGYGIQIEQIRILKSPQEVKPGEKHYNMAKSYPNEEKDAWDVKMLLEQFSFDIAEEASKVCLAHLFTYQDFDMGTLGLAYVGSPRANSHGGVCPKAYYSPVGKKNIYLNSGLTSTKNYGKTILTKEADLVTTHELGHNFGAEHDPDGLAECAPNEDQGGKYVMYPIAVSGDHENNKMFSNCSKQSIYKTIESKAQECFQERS
T2 sequence (P08254 100-272 limits assumed): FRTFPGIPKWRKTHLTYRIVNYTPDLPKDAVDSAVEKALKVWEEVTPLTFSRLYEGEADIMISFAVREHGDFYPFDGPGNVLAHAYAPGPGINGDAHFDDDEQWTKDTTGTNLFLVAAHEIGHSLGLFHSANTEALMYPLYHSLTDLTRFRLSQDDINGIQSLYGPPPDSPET

`CC#CCOc1ccc(S(=O)(=O)N2C[C@H](O)[C@H](O)[C@@H](OC)[C@@H]2C(=O)NO)cc1` [Compound (a), (2R,3S,4S,5S)-1-(4′-but-2′-ynyloxybenzenesulfonyl)-4,5-dihydroxy-3-methoxypiperidine-2-carboxylic acid hydroxamide]: the inhibitory constant (Ki) is greater than 850 nM in assay [1], greater than 650 nM in assay [2], greater than 790 nM in assay [3] and 4.3 nM in assay [4].
Consider `CC#CCOc1ccc(S(=O)(=O)N2C[C@H](O)[C@H](O)[C@@H](OCc3ccccc3)[C@@H]2C(=O)NO)cc1` [Compound (b), (2R,3S,4S,5S)-3-benzyloxy-1-(4′-but-2′-ynyloxybenzenesulfonyl)-4,5-dihydroxypiperidine-2-carboxylic acid hydroxamide], for which the Ki is greater than 850 nM in assay [1], greater than 650 nM in assay [2], greater than 790 nM in assay [3] and 9.4 nM in assay [4].
For `CC#CCOc1ccc(S(=O)(=O)N2C[C@H](OC)[C@H](O)[C@@H](O)[C@@H]2C(=O)NO)cc1` [Compound (c), (2R,3S,4R,5S)-1-(4′-but-2′-ynyloxybenzenesulfonyl)-3,4-dihydroxy-5-methoxypiperidine-2-carboxylic acid hydroxamide], in that order: greater than 850 nM, greater than 650 nM, greater than 790 nM and 2.4 nM.
On to `CC#CCOc1ccc(S(=O)(=O)N2C[C@H](O)[C@H](O)[C@@H](O)[C@@H]2C(=O)NO)cc1` [Compound (d), (2R,3S,4S,5S)-1-(4′-but-2′-ynyloxybenzenesulfonyl)-3,4,5-trihydroxy-piperidine-2-carboxylic acid hydroxamide], for which the Ki in assay [1] is greater than 850 nM; in assay [2] it was 490 nM; in assay [3], greater than 790 nM.
Regarding `CC#CCOc1ccc(S(=O)(=O)N2C[C@H](O)[C@H](O)[C@@H](OCC)[C@@H]2C(=O)NO)cc1` [Compound (e), (2R,3S,4S,5S)-1-(4′-but-2′-ynyloxybenzenesulfonyl)-4,5-dihydroxy-3-ethoxypiperidine-2-carboxylic acid hydroxamide], the inhibition constant (Ki) in assay [1] is greater than 850 nM; in assay [2] it was greater than 650 nM; in assay [3], greater than 790 nM; in assay [4] it was 8.5 nM.
For `CO[C@@H]1[C@@H](O)[C@@H](O)CN(S(=O)(=O)c2ccc(OCC#CCO)cc2)[C@H]1C(=O)NO` [Compound (f), (2R,3S,4S,5S)-4,5-dihydroxy-1-[4′-(4″-hydroxy-but-2′-ynyloxy)benzenesulfonyl]-3-methoxy-piperidine-2-carboxylic acid hydroxamide], in that order: greater than 850 nM, greater than 650 nM, greater than 790 nM and 18 nM.

One may read the Ki as a measure of affinity in units of concentration, obtained from inhibition or displacement.
